Columns and labels:
Format in all cases: functional
HL-60(TB) = assay: Growth inhibition of human HL-60(TB) cells at 10^-5 M incubated for 48 hrs by sulforhodamine B assay; conditions: HL-60, 48 h, read-out: GI
MOLT-4 = assay: Growth inhibition of human MOLT4 cells at 10^-5 M incubated for 48 hrs by sulforhodamine B assay; conditions: MOLT-4, 48 h, read-out: GI
SR = assay: Growth inhibition of human SR cells at 10^-5 M incubated for 48 hrs by sulforhodamine B assay; conditions: read-out: GI
A549 = assay: Growth inhibition of human A549/ATCC cells at 10^-5 M incubated for 48 hrs by sulforhodamine B assay; conditions: A549, 48 h, read-out: GI
EKVX = assay: Growth inhibition of human EKVX cells at 10^-5 M incubated for 48 hrs by sulforhodamine B assay; conditions: read-out: GI
HOP-62 = assay: Growth inhibition of human HOP62 cells at 10^-5 M incubated for 48 hrs by sulforhodamine B assay; conditions: HOP-62, 48 h, read-out: GI
HOP-92 = assay: Growth inhibition of human HOP92 cells at 10^-5 M incubated for 48 hrs by sulforhodamine B assay; conditions: HOP-92, 48 h, read-out: GI
NCI-H226 = assay: Growth inhibition of human NCI-H226 cells at 10^-5 M incubated for 48 hrs by sulforhodamine B assay; conditions: NCI-H226, 48 h, read-out: GI
NCI-H460 = assay: Growth inhibition of human NCI-H460 cells at 10^-5 M incubated for 48 hrs by sulforhodamine B assay; conditions: NCI-H460, 48 h, read-out: GI
COLO 205 = assay: Growth inhibition of human COLO205 cells at 10^-5 M incubated for 48 hrs by sulforhodamine B assay; conditions: COLO 205, 48 h, read-out: GI
HCC 2998 = assay: Growth inhibition of human HCC2998 cells at 10^-5 M incubated for 48 hrs by sulforhodamine B assay; conditions: HCC 2998, 48 h, read-out: GI
HCT-116 = assay: Growth inhibition of human HCT116 cells at 10^-5 M incubated for 48 hrs by sulforhodamine B assay; conditions: HCT-116, 48 h, read-out: GI
HCT-15 = assay: Growth inhibition of human HCT15 cells at 10^-5 M incubated for 48 hrs by sulforhodamine B assay; conditions: HCT-15, 48 h, read-out: GI
KM12 = assay: Growth inhibition of human KM12 cells at 10^-5 M incubated for 48 hrs by sulforhodamine B assay; conditions: KM12, 48 h, read-out: GI
SW-620 = assay: Growth inhibition of human SW620 cells at 10^-5 M incubated for 48 hrs by sulforhodamine B assay; conditions: SW-620, 48 h, read-out: GI
SF-295 = assay: Growth inhibition of human SF295 cells at 10^-5 M incubated for 48 hrs by sulforhodamine B assay; conditions: SF-295, 48 h, read-out: GI
SF-539 = assay: Growth inhibition of human SF539 cells at 10^-5 M incubated for 48 hrs by sulforhodamine B assay; conditions: SF-539, 48 h, read-out: GI
SNB-75 = assay: Growth inhibition of human SNB75 cells at 10^-5 M incubated for 48 hrs by sulforhodamine B assay; conditions: SNB-75, 48 h, read-out: GI
U-251 = assay: Growth inhibition of human U251 cells at 10^-5 M incubated for 48 hrs by sulforhodamine B assay; conditions: U-251, 48 h, read-out: GI
LOX IMVI = assay: Growth inhibition of human LOXIMVI cells at 10^-5 M incubated for 48 hrs by sulforhodamine B assay; conditions: read-out: GI
M14 = assay: Growth inhibition of human M14 cells at 10^-5 M incubated for 48 hrs by sulforhodamine B assay; conditions: M14, 48 h, read-out: GI
MDA-MB-435 = assay: Growth inhibition of human MDA-MB-435 cells at 10^-5 M incubated for 48 hrs by sulforhodamine B assay; conditions: MDA-MB-435, 48 h, read-out: GI
SK-MEL-28 = assay: Growth inhibition of human SK-MEL-28 cells at 10^-5 M incubated for 48 hrs by sulforhodamine B assay; conditions: SK-MEL-28, 48 h, read-out: GI
SK-MEL-5 = assay: Growth inhibition of human SK-MEL-5 cells at 10^-5 M incubated for 48 hrs by sulforhodamine B assay; conditions: SK-MEL-5, 48 h, read-out: GI
UACC-257 = assay: Growth inhibition of human UACC257 cells at 10^-5 M incubated for 48 hrs by sulforhodamine B assay; conditions: UACC-257, 48 h, read-out: GI
UACC-62 = assay: Growth inhibition of human UACC62 cells at 10^-5 M incubated for 48 hrs by sulforhodamine B assay; conditions: UACC-62, 48 h, read-out: GI
IGROV-1 = assay: Growth inhibition of human IGROV1 cells at 10^-5 M incubated for 48 hrs by sulforhodamine B assay; conditions: IGROV-1, 48 h, read-out: GI
OVCAR-5 = assay: Growth inhibition of human OVCAR5 cells at 10^-5 M incubated for 48 hrs by sulforhodamine B assay; conditions: OVCAR-5, 48 h, read-out: GI
OVCAR-8 = assay: Growth inhibition of human OVCAR8 cells at 10^-5 M incubated for 48 hrs by sulforhodamine B assay; conditions: OVCAR-8, 48 h, read-out: GI
SK-OV-3 = assay: Growth inhibition of human SKOV3 cells at 10^-5 M incubated for 48 hrs by sulforhodamine B assay; conditions: SK-OV-3, 48 h, read-out: GI
786-0 = assay: Growth inhibition of human 786-0 cells at 10^-5 M incubated for 48 hrs by sulforhodamine B assay; conditions: 786-0, 48 h, read-out: GI
CAKI-1 = assay: Growth inhibition of human Caki1 cells at 10^-5 M incubated for 48 hrs by sulforhodamine B assay; conditions: CAKI-1, 48 h, read-out: GI
RXF 393 = assay: Growth inhibition of human RXF393 cells at 10^-5 M incubated for 48 hrs by sulforhodamine B assay; conditions: RXF 393, 48 h, read-out: GI
TK-10 = assay: Growth inhibition of human TK10 cells at 10^-5 M incubated for 48 hrs by sulforhodamine B assay; conditions: TK-10, 48 h, read-out: GI
DU-145 = assay: Growth inhibition of human DU145 cells at 10^-5 M incubated for 48 hrs by sulforhodamine B assay; conditions: DU-145, 48 h, read-out: GI
MDA-MB-231 = assay: Growth inhibition of human MDA-MB-231 cells at 10^-5 M incubated for 48 hrs by sulforhodamine B assay; conditions: MDA-MB-231, 48 h, read-out: GI
Hs-578T = assay: Growth inhibition of human Hs 578T cells at 10^-5 M incubated for 48 hrs by sulforhodamine B assay; conditions: read-out: GI
T47D = assay: Growth inhibition of human T47D cells at 10^-5 M incubated for 48 hrs by sulforhodamine B assay; conditions: read-out: GI

| Structure (SMILES) | inhibition of growth at 10 µM (HL-60(TB)) [%] | inhibition of growth at 10 µM (MOLT-4) [%] | inhibition of growth at 10 µM (SR) [%] | inhibition of growth at 10 µM (A549) [%] | inhibition of growth at 10 µM (EKVX) [%] | inhibition of growth at 10 µM (HOP-62) [%] | inhibition of growth at 10 µM (HOP-92) [%] | inhibition of growth at 10 µM (NCI-H226) [%] | inhibition of growth at 10 µM (NCI-H460) [%] | inhibition of growth at 10 µM (COLO 205) [%] | inhibition of growth at 10 µM (HCC 2998) [%] | inhibition of growth at 10 µM (HCT-116) [%] | inhibition of growth at 10 µM (HCT-15) [%] | inhibition of growth at 10 µM (KM12) [%] | inhibition of growth at 10 µM (SW-620) [%] | inhibition of growth at 10 µM (SF-295) [%] | inhibition of growth at 10 µM (SF-539) [%] | inhibition of growth at 10 µM (SNB-75) [%] | inhibition of growth at 10 µM (U-251) [%] | inhibition of growth at 10 µM (LOX IMVI) [%] | further results |
| --- | --- | --- | --- | --- | --- | --- | --- | --- | --- | --- | --- | --- | --- | --- | --- | --- | --- | --- | --- | --- | --- |
| S=C1Nc2c(sc3ccc(Cl)cc23)C(c2cccc(Br)c2)N1 (stereo unspecified) | -6.42 | 11.5 | 16.3 | -7.88 | 12.4 | 15.5 | -3.61 | 15.2 | 7.39 | -2.63 | -27.2 | 10.9 | 0.95 | -2.38 | -1.6 | 1 | 1 | 18.5 | -7.09 | -0.61 | inhibition of growth at 10 µM (M14): 6.42%; inhibition of growth at 10 µM (MDA-MB-435): -2.42%; inhibition of growth at 10 µM (SK-MEL-28): -15.7%; inhibition of growth at 10 µM (SK-MEL-5): 3.95%; inhibition of growth at 10 µM (UACC-257): -8.63%; inhibition of growth at 10 µM (UACC-62): 13%; inhibition of growth at 10 µM (IGROV-1): 22.6%; inhibition of growth at 10 µM (OVCAR-5): -0.03%; inhibition of growth at 10 µM (OVCAR-8): 3.39%; inhibition of growth at 10 µM (SK-OV-3): 10.4%; inhibition of growth at 10 µM (786-0): -0.33%; inhibition of growth at 10 µM (CAKI-1): 19.2%; inhibition of growth at 10 µM (RXF 393): -7.19%; inhibition of growth at 10 µM (TK-10): -18.3%; inhibition of growth at 10 µM (DU-145): -11.9%; inhibition of growth at 10 µM (MDA-MB-231): 9.68%; inhibition of growth at 10 µM (Hs-578T): 4.32%; inhibition of growth at 10 µM (T47D): 24.5% |
| O=C1/C(=C\c2ccc3ccccc3c2)Sc2ccc(Cl)cc21 | -7.44 | 1.25 | 18.6 | -7.74 | 12.7 | 5.71 | 27.3 | 17.9 | 0.3 | -10.7 | -27.2 | 6.88 | -4.32 | -1.53 | 3.24 | -8.09 | -8.09 | -0.33 | -1.36 | 1.77 | inhibition of growth at 10 µM (M14): 3.18%; inhibition of growth at 10 µM (MDA-MB-435): -2.15%; inhibition of growth at 10 µM (SK-MEL-28): -17.4%; inhibition of growth at 10 µM (SK-MEL-5): 5.71%; inhibition of growth at 10 µM (UACC-257): -3.36%; inhibition of growth at 10 µM (UACC-62): 21.7%; inhibition of growth at 10 µM (IGROV-1): 15.7%; inhibition of growth at 10 µM (OVCAR-5): -2.92%; inhibition of growth at 10 µM (OVCAR-8): -4.13%; inhibition of growth at 10 µM (SK-OV-3): -3.03%; inhibition of growth at 10 µM (786-0): 0.49%; inhibition of growth at 10 µM (CAKI-1): 27.9%; inhibition of growth at 10 µM (RXF 393): -2.24%; inhibition of growth at 10 µM (TK-10): -5.61%; inhibition of growth at 10 µM (DU-145): -10.2%; inhibition of growth at 10 µM (MDA-MB-231): 12.4%; inhibition of growth at 10 µM (Hs-578T): -2.83%; inhibition of growth at 10 µM (T47D): 29.5% |
